According to patent publication US10202342B2, “Targeted delivery of imaging probes for in vivo cellular imaging” (University of Maryland, Baltimore, priority 2008, dated 2019):

Test system: cells
Assay: Intracellular retention of nitroxides (FIG. 7)
Format: cell-based
From the text: The exponential life time (τ) is related to the half-life (t½): t½=0.693τ.
It is evident that nitroxide has a significant increase in retention time and approximately a 4-fold improvement over nitroxide and a 12 fold increase over nitroxide.

With `CC1(C)CC(CN(CC(=O)O)CC(=O)O)C(C)(C)N1[O]` (stereo not drawn) [nitroxide [3], (2,2,5,5-tetramethylpyrrolidin-1-oxyl-3-ylmethyl)amine-N,N-diacetic acid] the “intracellular retention life time (single-exponential fits), comparison in words” value (FIG. 7, nitroxides [1]-[3] compared) was “longest life time within the cells”, the “intracellular retention time, improvement over nitroxide [2]” value (FIG. 7, retention within cells) was roughly 4 fold and the “intracellular retention time, increase over nitroxide [1]” value (FIG. 7, retention within cells) was roughly 12 fold.
